Test results from US12304910B2, “Janus kinase (JAK) family inhibitor, preparation of same, and applications thereof” (JIANGSU VCARE PHARMATECH CO., LTD., priority 2019, dated 2025).

How the values were obtained:
JAK2 = JAK2 (Homo sapiens, UniProt O60674); assay: Kinase activity test (γ33P-ATP isotopic method), JAK2; assay type: biochemical; settings: 33P-ATP 10 μM, 2 h reaction
Experimental: This experiment adopted a γ^33p-ATP isotopic test method to test the inhibitory effect of a compound on kinases JAK1, JAK2, JAK3 and TYK2, and obtained a half inhibitory concentration IC50 of the compound for inhibiting activity of the kinase.
20 mM 4-hydroxyethylpiperazine ethanesulfonic acid buffer (Hepes, pH 7.5), 10 mM magnesium chloride (MgCl2), 1 mM ethylene glycol diethyl ether diamine tetraacetic acid (EGTA), 0.02% dodecyl polyethylene glycol ether (Brij35), 0.02 mg/ml bovine serum albumin (BSA), 0.1 mM sodium vanadate (Na3VO4), 2 mM dithiothreitol (DTT), and 1% dimethylsulfoxide (DMSO).
A compound is dissolved with 100% DMSO to a specific concentration, and then subjected to gradient dilution by an automatic sampling device to obtain the samples to be tested with different concentrations (DMSO solutions).
3.1 diluting the reaction substrate with the basic reaction buffer;
3.2 adding the kinase into the substrate solution, and gently mixing well;
3.3 adding, by the automatic sampling system, the 100% DMSO diluted compounds with different concentrations into the kinase solution, and incubating for 20 min at room temperature; and
3.4 adding ^33p-ATP (10 μM, 10 μCi/μl) at room temperature to initiate the kinase reaction for a duration of 2 h.
The unreacted ATP and the reaction-generated […] in the reaction were removed by an ion exchange filtering system, and then the amount of radioactivity of ^33p isotope in the substrate was detected.
According to the amount of radioactivity, the kinase activities in the systems added with the inhibitors of different concentrations were calculated, to obtain the inhibitors' effects of the compounds of different concentrations on the kinase activity; and fitting was performed with graphpad prism to obtain the inhibitory IC50 values of the compounds.

[1] = tested on: DSS induced mouse ulcerative colitis model; assay: Efficacy test in DSS induced mouse ulcerative colitis model; assay type: in vivo
Source text: Mice of 6-7 weeks old were randomly grouped, 6 mice per group. Purified water was provided ad libitum to the mice in a negative control group, and a 2% solution of dextran sulfate sodium (DSS) was provided ad libitum to the mice in other groups, for 7 consecutive days. During the modeling, medication was given according to the groups, once a day for 7 days (the treatment groups and the mouse numbers can be adjusted according to the specific situation). Within 8-10 days later, the DSS-containing water was replaced with purified water, provided ad libitum to the mice. The normal administration continued for 3 days.
From the first day of administration, the general conditions such as metal state, eating, drinking and activities of the mice were respectively observed every day, the mice were weighed every day, and the animal stools were collected, evaluated for their traits and subjected to the occult blood test. The disease activity index (DAI) of experimental animals within 1-10 days were comprehensively assessed.
Scoring was performed according to the above-mentioned standards. The disease activity index (DAI) of each mouse was obtained by summing the scores of weight loss, stool trait and occult blood condition, to evaluate the disease activity. DAI=(score of weight loss+score of stool trait+score of bloody stool)/3, ranging from 0-4.
The experimental data was processed statistically, and the data are all expressed as mean±SD or mean±SME. The SPSS13.0 software was used for statistical analysis, and the differences among the groups were compared with t test (equal variance) or t′ test (unequal variance).

[2] = tested on: DNBS induced rat Crohn's disease model; assay: Therapeutic activity in DNBS induced rat Crohn's disease model; assay type: in vivo; set-up: rat colon ulcer area: unit not given beside the values; settings: for colon weight-length ratio / rat colon ulcer area: 7 days, mean±SD; for colon weight-length ratio: colon weight (g)/length (cm) ratio×100, model group G2 14.6±5.1; for rat colon ulcer area: model group G2 1.54±2.00
Experimental: Male wistar rats of 4-5 weeks old were adaptively fed for 5 days, and two days before the experiment, randomly divided into 6 groups:
Blank control group: G1 (Normal), 4 normal rats were selected and only given with 30% ethanol, 10 mL/kg.
0.5 mL of 50 mg/mL DNBS (DNBS dissolved in 30% ethanol) was injected into the colon of rats to induce enteritis in rats, for 40 rats in total. Eight of them were selected as model group G2 (Model), and the remaining 32 rats were administrated.
Administration group: the rats with DNBS induced enteritis were administered with ABT494 and the compound of Example 2 respectively and divided into G3-G6 groups, 8 rats/group. G3: ABT494, 10 mg/kg-QD; G4: Example 2, 0.3 mg/kg-BID; G5: Example 2, 1 mg/kg-BID; and G6: Example 2, 3 mg/kg-BID.
The rats were fasted, but fed with water for 48 hours, and a 5% glucose salt solution (10 mL/kg) was used as an energy supplement for experimental animals during the fasting period, once a day. On the day of experimental modeling, the fasting rats were anesthetized with Choutet (25 mg/kg), and then 0.5 mL of 50 mg/mL DNBS was injected from the anus to left colic flexure of the rat (about 8 cm to the anus) to induce rat enteritis. All rats were kept in a […] for 15 min until they were awaken, to prevent the backflow of DNBS. From the day of the experimental modeling, medication was given for 7 days.
After the DNBS modeling, the weights of the animals were measured and recorded every day, the daily activities of the animals were observed, and the abnormalities were recorded. During the experiment, the stool state of the rats was scored every day. On day 7, the rats were anesthetized with isoflurane (3-5%), blood was taken from the orbit, and the serum was separated and stored at −80° C. All animals were euthanized by cervical vertebra dis location after suffocation from excessive CO2 inhalation. The abdomen was cut, the colorectum was take out and longitudinally dissected, and the stool trait in the colorectum was scored. The colorectum was thoroughly rinsed with ice-cold PBS and then the ulcer surface was observed. The length and weight and ulcer area of the colon were recorded, the weight-length ratio (colon weight (g)/length (cm) ratio×100) was calculated, and the overall picture was taken. All intestinal tissue was longitudinally divided into two parts, where one part was fixed with 4% neutral […] and embedded with paraffin, and the rest colon sample was cryopreserved at −80° C.
Excel and Graphapad software were used for statistical analysis, and the results were expressed as mean±SD.

Sequence of JAK2 (O60674 whole entry): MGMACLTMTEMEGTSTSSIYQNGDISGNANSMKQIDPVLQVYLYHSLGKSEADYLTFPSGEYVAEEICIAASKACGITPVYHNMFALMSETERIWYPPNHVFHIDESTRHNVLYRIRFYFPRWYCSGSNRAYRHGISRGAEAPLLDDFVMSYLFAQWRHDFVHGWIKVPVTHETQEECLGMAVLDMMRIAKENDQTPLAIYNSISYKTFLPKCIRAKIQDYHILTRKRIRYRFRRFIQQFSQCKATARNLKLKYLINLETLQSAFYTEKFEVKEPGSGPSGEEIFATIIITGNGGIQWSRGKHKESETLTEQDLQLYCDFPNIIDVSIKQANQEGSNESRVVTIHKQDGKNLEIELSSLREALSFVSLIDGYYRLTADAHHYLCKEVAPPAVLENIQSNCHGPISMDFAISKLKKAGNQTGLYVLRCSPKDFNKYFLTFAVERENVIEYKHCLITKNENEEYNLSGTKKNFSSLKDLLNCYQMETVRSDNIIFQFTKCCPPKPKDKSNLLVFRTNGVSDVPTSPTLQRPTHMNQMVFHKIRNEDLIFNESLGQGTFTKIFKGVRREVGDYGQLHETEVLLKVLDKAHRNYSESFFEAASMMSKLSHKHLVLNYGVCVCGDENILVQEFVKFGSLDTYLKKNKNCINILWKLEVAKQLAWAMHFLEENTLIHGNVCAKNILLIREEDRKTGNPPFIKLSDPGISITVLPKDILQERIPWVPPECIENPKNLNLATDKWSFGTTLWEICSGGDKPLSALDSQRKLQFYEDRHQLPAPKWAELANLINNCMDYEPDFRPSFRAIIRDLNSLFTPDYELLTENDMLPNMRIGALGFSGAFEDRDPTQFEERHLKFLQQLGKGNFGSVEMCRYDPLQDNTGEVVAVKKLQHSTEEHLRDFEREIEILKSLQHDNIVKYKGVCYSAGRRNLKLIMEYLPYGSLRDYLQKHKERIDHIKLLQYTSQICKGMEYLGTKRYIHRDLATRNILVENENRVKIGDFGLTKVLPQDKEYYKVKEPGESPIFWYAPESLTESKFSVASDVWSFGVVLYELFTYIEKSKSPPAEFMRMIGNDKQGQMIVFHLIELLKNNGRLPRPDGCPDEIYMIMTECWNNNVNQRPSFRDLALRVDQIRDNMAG

NC(=O)c1cnc2[nH]ccc2c1NN1CCC[C@H](C(=O)NCC(F)F)C1 [Example 2, (S)-4-(3-(2,2-difluoroethylcarbamoyl)piperidine-1-amino)-1H-7-azaindole-5-carboxamide]
IC50 (JAK2): 3.69 nM | DAI score on day 8 ([1]; 5 mg/kg group, once a day, mouse DSS model, DAI range 0-4): 1.5 | effect on DSS induced enteritis in mice (in words) ([1]; relatively low dose): significant effect in inhibiting the DSS induced enteritis in mice | colon weight-length ratio ([2]; G4, 0.3 mg/kg-BID): 10.5±3.9 | rat colon ulcer area ([2]; G4, 0.3 mg/kg-BID): 0.83±1.00 | colon weight-length ratio ([2]; G5, 1 mg/kg-BID): 10.0±1.9 | rat colon ulcer area ([2]; G5, 1 mg/kg-BID): 0.65±1.05 | colon weight-length ratio ([2]; G6, 3 mg/kg-BID): 10.5±2.0 | rat colon ulcer area ([2]; G6, 3 mg/kg-BID): 0.76±1.21 | effect on DNBS induced enteritis of the rats (in words) ([2]; relatively low dose): significant effect in inhibiting the DNBS induced enteritis of the rats
